Columns and labels:
Botrytis cinereae [1] = assay: Inhibition of phytopathogenic fungi growth, laboratory test on potato-dextrose agar; format: cell-based; settings: active principle 0.01 % by mass in potato-dextrose agar
Method: (§1) A fungicidal composition based on this compound was prepared in the form of a 0.01% solution thereof in distilled water. A fungicidal action of the composition, according to the invention, was tested for inhibition of vegetative fungi growth such as Fusarium moniliforme, Ventura inaequalis, Rhyzoctonia ciolaceae, Botrytis cinereae, Verticillium albo-atrum, Diplodia zeae, Fusarium oxysporum, Rhoma betae, Rhyzoctonia aderholdii, Aspergillus niger, Alternaria sobani, Botrytis allii, Aspergillus fumigatis, Fusarium culmorum, Penicillium cyclopium affecting potato, sugar beet, cotton seeds either in laboratory or field conditions. For testing it to the Petri dishes containing potato-dextrose agar the composition of the invention was.added at the concentration of an active principle of 0.01 % by mass. The Petri dishes containing the same agar culture were inoculated with a mycelium of phytopathogenic fungi. For control dishes the phytopathogenic fungi were inoculated on agar without using the composition of the invention. A fungicidal effect of the composition, according to the invention was tested in comparison with the known fungicidal compositions based on 2,3-dichloro-1,4-naphthoquinone, zinc N,N'-ethylene-bis-dithiocarbamate and tetramethylthiuram disulphide.

Rhyzoctonia aderholdii [2] = assay: as above; format: cell-based; settings: active principle 0.01 % by mass in potato-dextrose agar
Method: as §1

Penicillium cyclopium [3] = assay: as above; format: cell-based; settings: active principle 0.01 % by mass in potato-dextrose agar
Method: as §1

Diplodia zeae [4] = assay: as above; format: cell-based; settings: active principle 0.01 % by mass in potato-dextrose agar
Method: as §1

Rhoma betae [5] = assay: as above; format: cell-based; settings: active principle 0.01 % by mass in potato-dextrose agar
Method: as §1

Aspergillus fumigatis [6] = assay: as above; format: cell-based; settings: active principle 0.01 % by mass in potato-dextrose agar
Method: as §1

Aspergillus niger [7] = assay: as above; format: cell-based; settings: active principle 0.01 % by mass in potato-dextrose agar
Method: as §1

Botrytis allii [8] = assay: as above; format: cell-based; settings: active principle 0.01 % by mass in potato-dextrose agar
Method: as §1

Alternaria sobani [9] = assay: as above; format: cell-based; settings: active principle 0.01 % by mass in potato-dextrose agar
Method: as §1

Fusarium oxysporum [10] = assay: as above; format: cell-based; settings: active principle 0.01 % by mass in potato-dextrose agar
Method: as §1

Verticillium albo-atrum [11] = assay: as above; format: cell-based; settings: active principle 0.01 % by mass in potato-dextrose agar
Method: as §1

Fusarium moniliforme [12] = assay: as above; format: cell-based; settings: active principle 0.01 % by mass in potato-dextrose agar
Method: as §1

Venturia inaequalis [13] = assay: as above; format: cell-based; settings: active principle 0.01 % by mass in potato-dextrose agar
Method: as §1

Fusarium culmorum [14] = assay: as above; format: cell-based; settings: active principle 0.01 % by mass in potato-dextrose agar
Method: as §1

Rhyzoctonia violaceae [15] = assay: as above; format: cell-based; settings: active principle 0.01 % by mass in potato-dextrose agar
Method: as §1

Botrytis cinereae [16] = assay: Inhibition of phytopathogenic fungi, field test on affected potato plants; format: in vivo; settings: 5 m^2 plots of affected potato plants sprayed
Source text: (§2) For field tests the plots of 5 m^2 in size with potato plants affected by Fusarium moniliforme, Venturia inaequalis, Rhyzoctonia violaceae, Botrytis cinereae, Verticillium albo-atrum, Diplodia zeae, Fusarium oxysporum, Rhoma betae, Rhyzoctonia aderholdii, Aspergillus niger, Alternaria sobani, Botrytis allii, Aspergillus fumigatis, Fusarium culmorum, Penicillium cyclopium were sprayed with the fungicide of the invention. To compare, the similar plots of the affected potato plants were aprayed with the known compositions indicated above.

Rhyzoctonia aderholdii [17] = assay: as above; format: in vivo; settings: 5 m^2 plots of affected potato plants sprayed
Source text: as §2

Penicillium cyclopium [18] = assay: as above; format: in vivo; settings: 5 m^2 plots of affected potato plants sprayed
Source text: as §2

Diplodia zeae [19] = assay: as above; format: in vivo; settings: 5 m^2 plots of affected potato plants sprayed
Source text: as §2

Rhoma betae [20] = assay: as above; format: in vivo; settings: 5 m^2 plots of affected potato plants sprayed
Source text: as §2

Aspergillus fumigatis [21] = assay: as above; format: in vivo; settings: 5 m^2 plots of affected potato plants sprayed
Source text: as §2

Aspergillus niger [22] = assay: as above; format: in vivo; settings: 5 m^2 plots of affected potato plants sprayed
Source text: as §2

Botrytis allii [23] = assay: as above; format: in vivo; settings: 5 m^2 plots of affected potato plants sprayed
Source text: as §2

Alternaria sobani [24] = assay: as above; format: in vivo; settings: 5 m^2 plots of affected potato plants sprayed
Source text: as §2

Fusarium oxysporum [25] = assay: as above; format: in vivo; settings: 5 m^2 plots of affected potato plants sprayed
Source text: as §2

Verticillium albo-atrum [26] = assay: as above; format: in vivo; settings: 5 m^2 plots of affected potato plants sprayed
Source text: as §2

Fusarium moniliforme [27] = assay: as above; format: in vivo; settings: 5 m^2 plots of affected potato plants sprayed
Source text: as §2

Venturia inaequalis [28] = assay: as above; format: in vivo; settings: 5 m^2 plots of affected potato plants sprayed
Source text: as §2

Fusarium culmorum [29] = assay: as above; format: in vivo; settings: 5 m^2 plots of affected potato plants sprayed
Source text: as §2

Rhyzoctonia violaceae [30] = assay: as above; format: in vivo; settings: 5 m^2 plots of affected potato plants sprayed
Source text: as §2

Solubility (qualitative) = settings: water, alcohols, acetone
Candida tropicalis [31] = assay: Fungicidal activity, large-scale test on contaminated surfaces and fabrics; format: cell-based; settings: composition 0.01 % by mass; surfaces of ceramics, metal, wood, rubber, fabrics
Method: (§3) The large-scale tests were carried out by using Candida albicans and Candida tropicalis strains 2-day culture of which was diluted with an isotonic solution of sodium chloride to the concentration of 5x10^7 cells in 1 ml.
(§4) The suspended cell culture was applied onto the surface (7 mm in diameter) of articles made of ceramics, metal, wood and rubber as well as cotton, flannel woollen fabrics which were presterillized.
(§5) In a day after incubating from the treated surfaces, the washings were taken with a cotton-gauze tampon wetted with Sabouraud^ts liquid medium, immersed into the tubes with a similar medium and placed into a thermostat at 37 °C for two days. Thereafter, the inoculum was introduced in Sabouraud's stiff agar, and the growth records were made by a conventional procedure.

Candida albicans [32] = assay: as above; format: cell-based; settings: composition 0.01 % by mass; surfaces of ceramics, metal, wood, rubber, fabrics
Method: as §3, §4, §5

Candida tropicalis [33] = assay: Fungicidal activity, laboratory test on Sabouraud medium; format: cell-based; settings: composition 0.01 % by mass in distilled water
Method: A fungicidal composition based on this compound was prepared which was a solution of it in distilled water at the concentration pf 0.01 % by mass. A fungicidal activity of the composition, according to the invention, was tested in laboratory conditions for inhibiting the growth of fungi such as Candida tropicalis affecting the macosal and skin coats, and internals.
To this, the Petri dishes containing the Sabouraud growth medium were inoculated with a suspension of microorganisms at the concentration of 5x10^7 cells of fungi in 1 ml.
The restricted surface areas (7 mm in diameter) were coated with the composition by means of a small metal spatula 4x4 mm in size. In a day of incubating at 37 °C in a thermostat, the composition inhibited the growth of yeast--like fungi. An antifungal activity of the composition was specified by a method of 10-fold serial dilution using Sabouraud's liquid medium in 2 ml of which 2x10^5 cells were introduced. After two days of incubation in the thermostat at 34 °C, a minimum dilution of the substance exerting a fungicidal effect was determined.

Candida albicans [34] = assay: as above; format: cell-based; settings: composition 0.01 % by mass in distilled water
gall nematodes = assay: Nematocidal effect, field test on affected tomato plants; format: in vivo; settings: 5 m^2 plots of tomato plants affected by nematodes
Method: In the field conditions, the plots of 5 m^2 in size of tomato plants affected by nematodes were treated with the claimed nematocidal compositions and the known nematocides.

[35] = tested on: invasion larvae of gall nematodes; assay: Nematocidal effect on invasion larvae, experimental (object glass) test; format: in vivo; settings: 1% solution in distilled water; 100 invasion larvae; 24 hours
Method: A nematocidal effect of the composition, according to the invention, was tested on invasion larvae of gall nematodes. To this end, 1 droplet of a suspension containing 100 invasion larvae of gall nematodes was placed onto the object glasses with cells. 1 droplet of the composition of the invention was added thereinto. 1 drop of distilled water was added to the control cell instead of the composition, according to the invention. The glasses with test and control cells were placed onto Petri dish with a moisten ashless filter, and 24 hours later the killed nematodes were recorded. The tests were 3-fold repeated. The study of a nematocidal activity was conducted in comparison with a known nematocidal composition based on 0,0-dimethyl-0-/2-(N,N'-diethylcarbamoyl)-1-methyl-2-chlorovinyl/ /phosphate.

Structure (SMILES)	Inhibition of growth of phytopathogenic fungi colonies, % Botrytis cinereae test laboratory (Botrytis cinereae [1]) [%]	Inhibition of growth of phytopathogenic fungi colonies, % Rhyzoctonia aderholdii test laboratory (Rhyzoctonia aderholdii [2]) [%]	Inhibition of growth of phytopathogenic fungi colonies, % Penicillium cyclopium Tests laboratory (Penicillium cyclopium [3]) [%]	Inhibition of growth of phytopathogenic fungi colonies, % Diplodia zeae test laboratory (Diplodia zeae [4]) [%]	Inhibition of growth of phytopathogenic fungi colonies, % Rhoma betae test laboratory (Rhoma betae [5]) [%]	Inhibition of growth of phytopathogenic fungi colonies, % Aspergillus fumigatis Tests laboratory (Aspergillus fumigatis [6]) [%]	Inhibition of growth of phytopathogenic fungi colonies, % Aspergillus niger test laboratory (Aspergillus niger [7]) [%]	Inhibition of growth of phytopathogenic fungi colonies, % Botrytis allii test laboratory (Botrytis allii [8]) [%]	Inhibition of growth of phytopathogenic fungi colonies, % Alternaria sobani test laboratory (Alternaria sobani [9]) [%]	Inhibition of growth of phytopathogenic fungi colonies, % Fusarium oxysporum test laboratory (Fusarium oxysporum [10]) [%]	Inhibition of growth of phytopathogenic fungi colonies, % Verticillium albo--atrum test laboratory (Verticillium albo-atrum [11]) [%]	Inhibition of growth of phytopathogenic fungi colonies, % Fusatium monili-forme test laboratory (Fusarium moniliforme [12]) [%]	Inhibition of growth of phytopathogenic fungi colonies, % Venturia inaequalis test laboratory (Venturia inaequalis [13]) [%]	Inhibition of growth of phytopathogenic fungi colonies, % Fusarium culmorum Tests laboratory (Fusarium culmorum [14]) [%]	Inhibition of growth of phytopathogenic fungi colonies, % Rhyzoctonia violaceae test laboratory (Rhyzoctonia violaceae [15]) [%]	Inhibition of growth of phytopathogenic fungi colonies, % Botrytis cinereae test field (Botrytis cinereae [16]) [%]	Inhibition of growth of phytopathogenic fungi colonies, % Rhyzoctonia aderholdii test field (Rhyzoctonia aderholdii [17]) [%]	Inhibition of growth of phytopathogenic fungi colonies, % Penicillium cyclopium Tests field (Penicillium cyclopium [18]) [%]	Inhibition of growth of phytopathogenic fungi colonies, % Diplodia zeae test field (Diplodia zeae [19]) [%]	solubility (Solubility (qualitative))	further results
O=C(NP(=O)(Nc1ccc(Cl)cc1[N+](=O)[O-])Nc1ccc(Cl)cc1[N+](=O)[O-])c1ccc(Br)cc1 [Example 16, para-bromobenzoylamidophosphoric acid di-para-chloro-ortho--nitroanilide]	100	100	80	100	100	92	100	100	100	98	100	74	100	100	87	100	100	79	100	soluble in water, alcohols, acetone	Inhibition of growth of phytopathogenic fungi colonies, % Rhoma betae test field (Rhoma betae [20]): 99%; Inhibition of growth of phytopathogenic fungi colonies, % Aspergillus fumigatis Tests field (Aspergillus fumigatis [21]): 91%; Inhibition of growth of phytopathogenic fungi colonies, % Aspergillus niger test field (Aspergillus niger [22]): 100%; Inhibition of growth of phytopathogenic fungi colonies, % Botrytis allii test field (Botrytis allii [23]): 100%; Inhibition of growth of phytopathogenic fungi colonies, % Alternaria sobani test field (Alternaria sobani [24]): 98%; Inhibition of growth of phytopathogenic fungi colonies, % Fusarium oxysporum test field (Fusarium oxysporum [25]): 97%; Inhibition of growth of phytopathogenic fungi colonies, % Verticillium albo--atrum test field (Verticillium albo-atrum [26]): 100%; Inhibition of growth of phytopathogenic fungi colonies, % Fusatium monili-forme test field (Fusarium moniliforme [27]): 73%; Inhibition of growth of phytopathogenic fungi colonies, % Venturia inaequalis test field (Venturia inaequalis [28]): 100%; Inhibition of growth of phytopathogenic fungi colonies, % Fusarium culmorum Tests field (Fusarium culmorum [29]): 99%; Inhibition of growth of phytopathogenic fungi colonies, % Rhyzoctonia violaceae test field (Rhyzoctonia violaceae [30]): 86%
O=C(NP(=O)(NNc1ccccc1)NNc1ccccc1)c1ccc(Cl)cc1 [Example 10, para--chlorobenzoylamidophosphoric acid diphenyl hydrazide]	–	–	–	–	–	–	–	–	–	–	–	–	–	–	–	–	–	–	–	soluble in water, alcohols, acetone	Inhibition of growth of fungal colonies, % Candida tropicalis tests large-scale (Candida tropicalis [31]): 100%; Inhibition of growth of fungal colonies, % Candida albicans tests large-scale (Candida albicans [32]): 100%; Inhibition of growth of fungal colonies, % Candida tropicalis tests laboratory (Candida tropicalis [33]): 0%; Inhibition of growth of fungal colonies, % Candida albicans tests laboratory (Candida albicans [34]): 100%
COP(=O)(NC(=O)C(Cl)(Cl)CCl)Nc1ccccc1 (stereo not drawn) [Example 11, methyl α, α , β-trichloropropyonylamidophosphate monoanilide]	43	100	95	100	67	93	100	78	69	62	56	39	54	100	62	39	100	90	98	soluble in water, alcohols, acetone	Inhibition of growth of phytopathogenic fungi colonies, % Rhoma betae test field (Rhoma betae [20]): 65%; Inhibition of growth of phytopathogenic fungi colonies, % Aspergillus fumigatis Tests field (Aspergillus fumigatis [21]): 93%; Inhibition of growth of phytopathogenic fungi colonies, % Aspergillus niger test field (Aspergillus niger [22]): 96%; Inhibition of growth of phytopathogenic fungi colonies, % Botrytis allii test field (Botrytis allii [23]): 78%; Inhibition of growth of phytopathogenic fungi colonies, % Alternaria sobani test field (Alternaria sobani [24]): 66%; Inhibition of growth of phytopathogenic fungi colonies, % Fusarium oxysporum test field (Fusarium oxysporum [25]): 60%; Inhibition of growth of phytopathogenic fungi colonies, % Verticillium albo--atrum test field (Verticillium albo-atrum [26]): 54%; Inhibition of growth of phytopathogenic fungi colonies, % Fusatium monili-forme test field (Fusarium moniliforme [27]): 38%; Inhibition of growth of phytopathogenic fungi colonies, % Venturia inaequalis test field (Venturia inaequalis [28]): 52%; Inhibition of growth of phytopathogenic fungi colonies, % Fusarium culmorum Tests field (Fusarium culmorum [29]): 98%; Inhibition of growth of phytopathogenic fungi colonies, % Rhyzoctonia violaceae test field (Rhyzoctonia violaceae [30]): 60%
O=C(NP(=O)(Nc1ccc(Cl)cc1)Nc1ccc(Cl)cc1)c1ccc(Br)cc1 [Example 18, para-bromobenzoylamidophosphoric acid di-para-chloroanilide]	–	–	–	–	–	–	–	–	–	–	–	–	–	–	–	–	–	–	–	soluble in water, alcohols, acetone	Death of larvae, %, conditions field (gall nematodes): 92%; Death of larvae, %, conditions experimental [35]: 89%
